From US20020183388A1, “Use of retinoids plus histone deacetylase inhibitors to inhibit the growth of solid tumors” (priority 2001, published 2002)

How the values were obtained:
[1] = tested on: SK-RC-39 human renal carcinoma cells; experiment: Growth assay of SK-RC-39 cells, cell number counted; assay type: cell-based; conditions: low dose TSA
Description: (§1) Data was plotted using Prism 3.0.
The cells were counted at day 7. A small amount of ethanol was added to the control cells, as a vehicle and solvent for the retinoic acid.
Culture conditions were as shown. […] The term EtOH indicates the control cells, treated with a very low amount of ethanol, the same amount used to dissolve retinoic acid.

[2] = tested on: SK-RC-45 human renal carcinoma cells; experiment: Growth assay of SK-RC-45 cells, cell number counted
Description: Liposome encapsulated ATRA (ATRA-IV, Antigenics Inc., New York, N.Y.) was reconstituted from 100 mg vials with 50 ml of 0.9% saline. Powdered ATRA was dissolved in EtOH to make a 1 mM ATRA (Sigma, St. Louis, Mo.) stock which was stored at −80° C. Trichostatin A (Wako Pure Chemical Industries, Ltd., Osaka, Japan) was dissolved in 5 ml of EtOH to make a 1 mg/ml stock and sodium phenylbutyrate (NaPBA, Triple Crown America, Perkasie, Pa.) was prepared weekly from the powdered form to make a 25 mM stock solution. Cell lines were maintained in Minimal Essential Medium supplemented with 7% fetal calf serum, non-essential amino acids, and 1% penicillin/streptomycin (7% MEM). Empty liposomes (provided by Antigenics Inc.) were diluted in 10 ml of 0.9% saline to equal the same concentration of liposomes in the lipoATRA.
(§2) 24 well tissue culture dishes were seeded with cells in 1 mL tissue culture medium (Clonetics) at 10^4 cells/well. Cells were incubated overnight at 37° C. in 10% CO2. Fresh medium containing drugs: Ethanol control (EtOH), 1 μM retinoic acid (RA), 2ng/mL trichostatin A (TSA), 25 μM sodium phenylbutyrate (PBa), and combinations of these were added the next day (day zero). Fresh medium containing drugs was added on days 3 and 5. Cells were trypsinized on days 0, 3, 5, and 7 and cell number was determined using a Z1 Coulter particle counter. […] Error bars are the standard error mean (SEM) of 4 replicate wells.
Cells were treated as indicated. The cell number was counted on day 7.
Cells were treated as indicated and cell number was counted.

[3] = tested on: SK-RC-01 human renal carcinoma cells; experiment: Growth assay of SK-RC-01 cells, cell number counted; conditions: for inhibition of cell growth (FIG. 7): retinoic acid
Description: Trichostatin A (Wako Pure Chemical Industries, Ltd., Osaka, Japan) was dissolved in 5 ml of EtOH to make a 1 mg/ml stock and sodium phenylbutyrate (NaPBA, Triple Crown America, Perkasie, Pa.) was prepared weekly from the powdered form to make a 25 mM stock solution. Cell lines were maintained in Minimal Essential Medium supplemented with 7% fetal calf serum, non-essential amino acids, and 1% penicillin/streptomycin (7% MEM).
as §2
Cells were treated as indicated. The cell number was counted at day 7.
The cell number was counted on day 7.

[4] = tested on: SK-RC-39 cells (subcutaneous xenograft); experiment: Human tumor xenograft model in nu/nu mice; assay type: in vivo
Description: Forty Swiss nu/nu mice were injected in the right flank subcutaneously with 5×10^6 SK-RC-39 cells that had been cultured in 7% MEM and then trypsinized. Four days later, four cohorts of 10 mice each began to receive one tail vein injection of TSA or control and one injection of ATRA-IV or control every Monday, Wednesday and Friday for the duration of the experiment. The four treatment groups were as follows: (1) PBS with 1% EtOH+empty liposomes; (2) LipoATRA (7.4-8.1 mg/kg)+PBS with 1% EtOH; (3) TSA ([…])+empty liposomes; and (4) TSA+LipoATRA. The study ended in the eighth week of treatment and at least six animals remained in each arm at the conclusion of the study and were considered evaluable. The animals tolerated the treatment well and gained weight throughout the treatment course. […] The tumor growth inhibition observed in the TSA+LipoATRA arm was much greater than that observed in the control arm. While the difference between the TSA+LipoATRA and the TSA+empty liposome arm was significant (FIG. 16), both of these treatments led to a very statistically significant difference in growth as compared to the control arm.

[5] = tested on: PC-3 human prostate cancer cells; experiment: Growth assay of PC-3 cells, cell number counted; assay type: cell-based; conditions: day 7; low dose TSA; drugs added only once on day 0
Description: as §1
Results of growth assays of the human prostate cancer cell line PC-3, are depicted in FIG. 20. Cells were treated as indicated. Cell number was counted on days 0, 3, 5, and 7. Drugs were added only once on day 0. TSA alone, retinoic acid alone, and retinol alone each inhibited cell growth by approximately 20% at day 7. The combination of low dose TSA plus retinoic acid or low dose TSA plus retinol inhibited cell growth by almost 60%.

[6] = tested on: MB-435 human breast cancer cells; experiment: Growth assay of MB-435 cells by MTT; assay type: cell-based
Description: 96 well tissue culture dishes were seeded with 10^4 cells/well in 200 μL DME tissue culture medium supplemented with 10% fetal calf serum (FCS).
This assay detects color which is proportional to the number of cells present. Tissue culture medium containing drugs was removed and 200 µL of DME containing 2 mg/mL MTT ((3-4, 5-dimethyl thiazol-2yl) 2,5-diphenyltetrazolium bromide) was added to each well. Plates were incubated at 37° C. and 10% CO2 for 30 minutes. Medium containing MTT was then removed and the cells were washed once with PBS. Following removal of the PBS, 200 μL DMSO was added to each well and plates were placed on a rotating platform shaker for 5 minutes. Results were obtained by reading the absorbance at a wavelength of 550 nm using a spectrophotometer. Data was plotted using Prism 3.0.
Cells were plated in wells on day 0. Drugs were added on day 0 and again on days 3 and 5. The MTT assay was carried out on days 5 and 7. 1 μM of retinoic acid was used vs. 1 μM of liposomal retinoic acid (ATRA-IV). A very low dose (2 ng/ml) of trichostatin A (TSA) was also used. In addition, another inhibitor of histone deacetylases, 500 μM phenylbutyrate, was used. Various combinations of the drugs were also used in the growth assays.
Cells were treated as indicated.

[7] = tested on: HMEC normal human mammary epithelial cells (primary cultures); experiment: Growth assay of HMEC cells, cell number counted; assay type: cell-based; conditions: cells counted days 0, 3, 5, 7, 1 μM retinoic acid, 2 ng/ml TSA, 25 μM phenylbutyrate
Description: Also used were HMEC cells, which are cells from a normal human mammary epithelial cell line (primary cultures).
as §1
The drugs were added as described above, and cells were counted on days 0, 3, 5, and 7. […] However, in the body, most normal cells are not rapidly dividing as tumor cells are. […] This experiment was primarily performed in order to determine if the retinoid and histone deacetylase inhibitor combination worked similarly in tumor and normal epithelial cells.

[8] = tested on: LnCap human prostate cancer cells; experiment: Growth assay of LnCap cells, cell number counted; assay type: cell-based; conditions: 168 h, day 7, 1 μM retinoic acid, 1 μM retinol, 0.5 μM valproic acid, drugs added only once at time 0, read-out: inhibition of cell growth (FIG. 17)
Description: as §1
Cell number was counted on days 0, 3, 5, and 7. In this experiment, retinoic acid was employed alone at 1 μM. Retinol (vitamin A) was employed at 1 μM. Valproic acid, a histone deacetylase inhibitor, was employed at 0.5 μM alone. Combinations of these drugs were also used. All drugs were added only once, at time 0, in this experiment. […] Valproic acid (VPA) alone inhibited cell growth by approximately 40%. The combination of retinoic acid plus VPA inhibited cell growth by 75%, as did the combination of valproic acid plus retinol.

[9] = tested on: SCC-15 human head and neck cancer cells; experiment: Growth assay of SCC-15 cells, cell number counted; assay type: cell-based; conditions: SCC-15, 168 h, day 7, TSA 8 ng/ml, 1 μM retinoic acid, 1 μM retinol, drugs added only at time 0, read-out: inhibition of cell growth (FIG. 19)
Description: as §1
Cells were treated as indicated. Drugs were added only at time 0. Cell number was counted on days 0, 3, 5, and 7.
Cell number was counted on days 0, 3, 5, and 7. In this experiment, a low dose of TSA (8 ng/ml) was used alone or in combination with 1 μM retinoic acid or 1 μM retinol. Drugs were added only at time 0.

[10] = cells counted on day 7, 1 μM retinoic acid, low dose TSA
[11] = cells counted at day 7, low dose TSA

## CC(/C=C/C(=O)NO)=C\[C@@H](C)C(=O)c1ccc(N(C)C)cc1 [TSA, trichostatin A]
[1]; cells counted at day 7, retinoic acid
  inhibition of cell growth (FIG. 6): 80-90%
[1]; cells counted on day 7, 1 μM retinoic acid
  inhibition of cell growth (FIG. 9): approximately 75%
[2]; [10]
  inhibition of cell growth (FIG. 8): 60-65%
[2]; cells counted on day 7, TSA 100 ng/ml
  inhibition of cell growth, high dose TSA (FIG. 8): extremely effective in inhibiting kidney cancer cell growth
[3]; cells counted at day 7, TSA 100 ng/ml
  inhibition of cell growth, high dose TSA (FIG. 7): roughly 100%
[3]; [11]
  inhibition of cell growth (FIG. 7): 20-25%
[3]; [10]
  inhibition of cell growth (FIG. 12): approximately 25%
[3]; cells counted on day 7, high dose TSA
  inhibition of cell growth, high dose TSA (FIG. 12): greater than 95%
[4]; nu/nu mice, tail vein injection Mon/Wed/Fri for eight weeks
  toxicity, histologic analysis of the liver, lung, spleen and kidneys: lack of toxicity
[4]; tail vein injection Mon/Wed/Fri, eighth week of treatment, LipoATRA 7.4-8.1 mg/kg, TSA 34-41 μg/ml
  inhibition of tumor growth compared to control (FIG. 16): 38%
[5]
  inhibition of cell growth (FIG. 20): approximately 20%
[6]; TSA 100 ng/ml
  growth inhibition, high dose TSA (FIG. 3): complete growth inhibition
[6]; day 7, 1 μM retinoic acid, 1 μM ATRA-IV, 2 ng/ml TSA, 500 μM phenylbutyrate, drugs added days 0, 3, 5
  inhibition of cell growth (FIG. 1): did not inhibit cell growth
[6]; days 3, 5, 7
  comparison of cell growth reduction between treatments (FIG. 3): better in reducing cell growth than phenylbutyrate
[7]
  inhibition of cell growth (FIG. 2): about 50%

## CCCC(CCC)C(=O)O [Valproic acid]
[8]
  inhibition at 0.5 µM: ~40%

## CC1=C(/C=C/C(C)=C/C=C/C(C)=C/CO)C(C)(C)CCC1 [retinol]
[5]
  inhibition of cell growth (FIG. 20): approximately 20%
[8]
  inhibition at 1 µM: ~27%
[9]
  inhibition at 1 µM: 35 to 40%

## CC1=C(/C=C/C(C)=C/C=C/C(C)=C/C(=O)O)C(C)(C)CCC1 [retinoic acid, 3, 7 dimethyl-9-(2,6,6-trimethyl-1-cyclohenen-1-yl)-2,4,6,8,-nonatetraenoic acid]
[2]; Homo sapiens, 168 h, read-out: inhibition of cell growth (FIG. 8)
  inhibition at 1 µM: 55 to 60%
[3]; Homo sapiens, 168 h, read-out: inhibition of cell growth (FIG. 12)
  inhibition at 1 µM: 12.5%
[3]; [11]
  inhibition of cell growth (FIG. 7): ~10%
[5]
  inhibition of cell growth (FIG. 20): approximately 20%
[6]; Homo sapiens, 168 h, day 7, 1 μM retinoic acid, 1 μM ATRA-IV, 2 ng/ml TSA, 500 μM phenylbutyrate, drugs added days 0, 3, 5, read-out: inhibition of cell growth (FIG. 1)
  inhibition at 1 µM: ~20%
[8]
  inhibition at 1 µM: 25%
[7]; Homo sapiens, HMEC, read-out: inhibition of cell growth (FIG. 2)
  inhibition at 1 µM: ~50%
[9]
  inhibition at 1 µM: 35 to 40%
